Assay results: PubChem BioAssay AID1645848
Converted amounts (≈) assume the structure as drawn.

Conditions: buffer; pH 7.4; 6.0 h; 150.0 µM

solubility kinetic [µg/mL] | SMILES
< 1 | COc1cc(Nc2nc(-c3ccncc3)nc3ccccc23)ccc1F
< 1 | CCN1C(=O)c2ccccc2[S@](=O)c2ccc(C(=O)N[C@H](C)c3ccc4ccccc4c3)cc21
18.1 (≈ 43 µM) | CCN(CC)[S+](=O)([O-])c1cc(NC(=O)c2[nH]c(C)c(C(C)=O)c2C)ccc1OC
< 1 | O=C1Nc2ccccc2C12CC2c1cc(Cl)c(O)c(Cl)c1 (stereo unspecified)
< 1 | COc1cc(NC(=O)Cn2c(=O)oc3cc(S(=O)(=O)N4CCCCCC4)ccc32)cc(OC)c1
32.3 (≈ 85.2 µM) | CCCCCn1c(CCCNC(=O)c2ccccc2OC)nc2ccccc21
27.7 (≈ 72.1 µM) | Cc1cc(C)nc(NC(=S)N2CCN(c3ccc4nsnc4c3)CC2)c1
11.4 (≈ 32.1 µM) | Oc1c(CN2CCN(c3ccccn3)CC2)cc(Cl)c2cccnc12
6.61 (≈ 17.2 µM) | Cc1cnc(-c2ccccc2C(C)C)nc1NCc1ccc(-n2ccnn2)cc1
> 76 | COc1cc2c(cc1OC)C(C[C@H]1CN(S(=O)(=O)c3cccc(C#N)c3)CC[C@H]1CC(=O)O)=NCC2
> 56 | CCCN1CNc2c(c(=O)[nH]c(=S)n2Cc2ccc(OC)c(OC)c2)C1
4.52 (≈ 13.1 µM) | NC(=O)C1CCN(c2ncc(-c3ccc4c(c3)OCCO4)s2)CC1
1.62 (≈ 3.69 µM) | COC(=O)c1ccc2nc(NC3=NC(c4[nH]ncc4Cl)C4=C(CCCC4=O)N3)oc2c1 (stereo unspecified)
4.79 (≈ 13.7 µM) | COc1ccc(C(=O)NC2CCCc3c2[nH]c2ccccc32)cc1OC (stereo unspecified)
17.3 (≈ 47.9 µM) | CCc1[nH]c2ccc(CNC(=O)Cc3cnc4c(C)cccn34)cc2c1C
32.8 (≈ 87.5 µM) | Cc1cc(-c2nnc3n2CCCCC3)c(C)n1-c1cccc(C(F)(F)F)c1
< 1 | CS(=O)(=O)CCNCc1ccc(-c2ccc3ncnc(Nc4ccc(OCc5cccc(F)c5)c(Cl)c4)c3c2)o1
> 63 | O=C(O)c1c(Sc2ccccc2)c2cc(Cl)ccc2n1Cc1ccc(Cl)cc1

solubility kinetic [µg/mL] | SMILES
11.4 (≈ 26.9 µM) | Cc1cc(NS(=O)(=O)c2ccc(NCCc3ccc(Cl)c(Cl)c3)cc2)no1
> 45 | O=C1Nc2ccccc2C1Cc1cc(Cl)c(O)c(Cl)c1 (stereo unspecified)
< 1 | Cc1c(-c2cccc3c(CCCOc4cccc5ccccc45)c(C(=O)O)n(Cc4cccnc4)c23)c(COc2ccc(N3CCN([S+](=O)([O-])N(C)C)CC3)cc2)nn1C
> 76 | Cc1noc(C)c1-c1cc(-c2ccc3c(c2)C(=O)NC3)cn2cncc12
< 1 | COc1ccc(NC(=O)C23CC4CC(CC(C4)C2)C3)cc1[S+](=O)([O-])Nc1ccc(Br)cc1
4.02 (≈ 12.7 µM) | CCOC(=O)c1nn(-c2ccccc2)c(=O)c2c(N)scc12
11.9 (≈ 29.9 µM) | CC(O)(C#Cc1ccc2c(c1)N(c1nc(N)ncc1Cl)CC2)c1nccs1 (stereo unspecified)
> 100 | CNC(=O)c1ccc(C)c(-n2c(C)cc(OCc3ccc(F)cc3F)c(Br)c2=O)c1
> 53 | CN(C)C(=O)c1cc(-c2ccc(S(C)(=O)=O)cc2)c2cnn(C)c2n1
< 1 | Cc1ccc(-c2cc3c(nn2)-c2ccccc2C3=O)cc1
9.08 (≈ 28.9 µM) | COc1ccc(CCNc2ncnc3onc(C)c23)c(OC)c1
> 52 | O=c1[nH]c(C2CCN(CC3CCCCC3)CC2)nn1Cc1ccccc1
< 1 | CC(=O)c1c(C)c(C(=O)Nc2cccc([S+](=O)([O-])N3CCCCCC3)c2)n(C)c1C
44.2 (≈ 125 µM) | NC(=O)C1CCN(c2nccc(-c3ccc4c(c3)OCCCO4)n2)CC1
3.53 (≈ 7.69 µM) | CC(=O)N1CCc2c(sc3c2c(=O)n(-c2ccccc2)c(=O)n3CC(=O)c2ccccc2)C1
32.1 (≈ 81.7 µM) | CC(C)c1ccccc1-c1ncc(F)c(NCC2CCN(c3cnccn3)C2)n1 (stereo unspecified)
5.58 (≈ 17.9 µM) | COCC(C)Nc1ncnc2c1cnn2-c1ccc(C)c(C)c1 (stereo unspecified)
> 49 | CC(=O)c1cccc(-c2csc(N3CCC(C(N)=O)CC3)n2)c1

Continued, compound first:

SMILES | solubility kinetic [µg/mL]
Cc1ccc(S(=O)(=O)Nc2cc(C(=O)Nc3nc(-c4ccccc4)cs3)ccn2)cc1 | < 1
COc1ccc(Nc2ncc(C(=O)Nc3cccc(Cl)c3)c3ccccc23)cc1 | < 1
Nc1c(S(=O)(=O)c2cccs2)c2nc3ccccc3nc2n1Cc1ccccc1 | < 1
CN1CCCC(CC2c3ccccc3Sc3ccccc32)C1.Cl (stereo unspecified) | > 46
Cc1cccc2c(C(=O)O)cc(-c3cccs3)nc12 | > 40
Cc1sc2c(c1C)C(c1ccc(Cl)cc1)=N[C@@H](CC(=O)Nc1ccc(OCCOCCOCCOCCNc3cccc4c3C(=O)N(C3CCC(=O)NC3=O)C4=O)cc1)c1nnc(C)n1-2 (stereo partly specified) | < 1
CS(=O)(=O)N1CCN(c2nc(-c3ccc(Br)cc3)cs2)CC1 | < 1
O=S(=O)(Nc1ccc(S(=O)(=O)Nc2nccs2)cc1)c1ccc2ccccc2c1 | 33.2 (≈ 74.6 µM)
Cc1ccc(S(=O)(=O)Nc2cnccc2C(=O)Nc2nc(C3CCC3)cs2)cc1 | > 63
O=C(Nc1ccccc1O)c1ccc(NC(=O)C2CC2)cc1 | 1.75 (≈ 5.92 µM)
Cc1c(Cl)cccc1NC(=O)CNS(=O)(=O)c1cccs1 | > 51
CNc1oc(-c2cccc3ccccc23)nc1C(=O)Nc1cccc(C#N)c1 | < 1
Cc1nn2c(c1-c1ccccc1-c1ccccc1)N(CC1CC1)CCC2 | 1.56 (≈ 4.53 µM)
O=C(c1cnc(N2CCCCC2)c2ccccc12)N1CCN(c2ccc(Cl)cc2)CC1 | < 1
CCOc1ccc(CCNC(=O)c2cc3cnccc3n2Cc2cccc(C)n2)cc1OCC | > 68
Cc1cccc(-n2ccc(=O)c(C(=O)Nc3ccc(S(=O)(=O)Nc4nccs4)cc3)n2)c1 | < 1
CCN(CC)CCCCNc1ncc2cc(-c3c(Cl)cccc3Cl)c(NC(=O)NC(C)(C)C)nc2n1 | 34.7 (≈ 65.2 µM)
Cc1ccc(S(=O)(=O)Nc2cnccc2C(=O)Nc2nc(-c3cccc(Cl)c3)cs2)cc1 | < 1

SMILES | solubility kinetic [µg/mL]
O=S(=O)(Nc1nccs1)c1ccc(NCc2cccc(Cl)c2O)cc1 | 46.1 (≈ 117 µM)
CS(=O)(=O)c1ccc(-c2cnc(NCc3ccco3)n3cnnc23)cc1 | > 37
O=C(Nc1ncc(Cc2ccc(C(F)(F)F)cc2)s1)c1ccco1 | < 1
Fc1cc(Nc2nc(-c3ccncc3)nc3ccccc23)ccc1N1CCCC1 | < 1
CNC(=O)C1CCN(c2nc(-c3ccc(Br)cc3)cs2)CC1 | 3.67 (≈ 9.64 µM)
O=C(Nc1ccc2c(N3CCCCC3)ncnc2c1)c1cc(F)cc(F)c1 | < 1
Cc1cccc(C)c1Nc1c(-c2ccccn2)nc2ccc(Cl)cn12 | < 1
CC(=O)c1c(C)[nH]c(C(=O)Nc2cccc([S+](=O)([O-])Nc3ccccc3C)c2)c1C | < 1
CCC(CC)c1cc([C@H]2CN3CC[C@H]2C[C@@H]3CNC(=O)Cc2cccs2)nc(-c2ccncc2)n1 | > 72
O=C(Cc1ccc(Cl)c(Cl)c1)Nc1ccc(S(=O)(=O)Nc2ccccc2)cc1 | < 1
N#Cc1c(NC(=O)c2cccc3ccccc23)sc2c1CCCC2 | < 1
CC(=O)c1c(C)[nH]c(C(=O)N(C)C)c1C | > 31
CCOc1ccc(CCNC(=O)c2cc3ncccc3n2Cc2cccc(C)c2)cc1OCC | 36.5 (≈ 79.7 µM)
O=[N+]([O-])c1ccc(-c2nc(Nc3ccc(F)c(F)c3)c3ccccc3n2)cc1 | < 1
FC(F)(F)c1ccccc1-c1nc(NCc2cccs2)c2ccccc2n1 | < 1
O=S(=O)(c1ccccc1)c1nnn2c1nc(NCc1cccs1)c1sccc12 | < 1
Oc1ccc(CNc2ccccc2C(F)(F)F)c2cccnc12 | 1.23 (≈ 3.85 µM)
